Test results published in ChEMBL document CHEMBL5113512, “β-Nitrostyrene derivatives as broad range potential antifungal agents targeting fungal cell wall” (2022).
Converted amounts (≈) assume the structure as drawn. The source made the active and inactive calls. The calls are words filed in the database; no cut-off is given here.

Assays:
Candida albicans [1] = assay: Antifungal activity against wild type Candida albicans SN152 assessed as inhibition of fungal growth by broth microdilution method; assay type: functional
Candida albicans [2] = assay: Antifungal activity against Candida albicans SN152 harboring CAS5 mutant assessed as inhibition of fungal growth by broth microdilution method; assay type: functional
[Candida] auris [3] = Antifungal activity against Candida auris 102 assessed as inhibition of fungal growth by broth microdilution method; assay type: functional; details: Candidozyma auris
Candida albicans [4] = assay: Synergistic antifungal activity against Candida albicans ATCC 24433 assessed as fractional inhibitory concentration index incubated for 48 hrs in presence of caspofungin by checker board assay; assay type: functional
Candida albicans [5] = assay: Antifungal activity against Candida albicans ATCC 24433 overexpressing transporter protein F5 assessed as inhibition of fungal growth by broth microdilution method; assay type: functional
Candida albicans [6] = assay: Antifungal activity against Candida albicans ATCC 24433 overexpressing transporter protein GU5 assessed as inhibition of fungal growth by broth microdilution method; assay type: functional
Candida albicans [7] = assay: Antifungal activity against Candida albicans ATCC 24433 overexpressing ADCDR1-GFP assessed as inhibition of fungal growth by broth microdilution method; assay type: functional
Candida albicans [8] = assay: Antifungal activity against Candida albicans ATCC 24433 overexpressing ADPDR5-GFP assessed as inhibition of fungal growth by broth microdilution method; assay type: functional
Candida tropicalis = assay: Antifungal activity against Candida tropicalis ATCC 750 assessed as inhibition of fungal growth by broth microdilution method; assay type: functional
Candida albicans [9] = assay: Synergistic antifungal activity against Candida albicans ATCC 24433 overexpressing ADCDR1-GFP assessed as fractional inhibitory concentration index incubated for 48 hrs in presence of caspofungin by checker board assay; assay type: functional
Candida albicans [10] = assay: Antifungal activity against Candida albicans ATCC 24433 overexpressing AD(1-8)u-assessed as inhibition of fungal growth by broth microdilution method; assay type: functional
Candida parapsilosis = assay: Antifungal activity against Candida parapsilosis ATCC 90018 assessed as inhibition of fungal growth by broth microdilution method; assay type: functional; details: Lodderomyces parapsilosis
Candida albicans [11] = assay: Synergistic antifungal activity against Candida albicans ATCC 24433 overexpressing ADPDR5-G assessed as fractional inhibitory concentration index incubated for 48 hrs in presence of caspofungin by checker board assay; assay type: functional
[Candida] auris [12] = Antifungal activity against Candida auris 118 assessed as inhibition of fungal growth by broth microdilution method; assay type: functional; details: Candidozyma auris
Candida albicans [13] = assay: Antifungal activity against Candida albicans ATCC 24433 assessed as inhibition of fungal growth by broth microdilution method; assay type: functional
Candida albicans [14] = assay: Synergistic antifungal activity against Candida albicans ATCC 24433 overexpressing ADCaMDR1-GFP assessed as fractional inhibitory concentration index incubated for 48 hrs in presence of caspofungin by checker board assay; assay type: functional
[Candida] auris [15] = Antifungal activity against wild type Candida auris 102 assessed as inhibition of fungal growth by broth microdilution method; assay type: functional; details: Candidozyma auris
Candida albicans [16] = assay: Antifungal activity against Candida albicans ATCC 24433 overexpressing transporter protein GU4 assessed as inhibition of fungal growth by broth microdilution method; assay type: functional
Candida albicans [17] = assay: Antifungal activity against Candida albicans ATCC 24433 overexpressing transporter protein F2 assessed as inhibition of fungal growth by broth microdilution method; assay type: functional
[Candida] auris [18] = Antifungal activity against Candida auris 105 assessed as inhibition of fungal growth by broth microdilution method; assay type: functional; details: Candidozyma auris
Nakaseomyces glabratus = assay: Antifungal activity against Candida glabrata ATCC 2001 assessed as inhibition of fungal growth by broth microdilution method; assay type: functional
Candida albicans [19] = assay: Antifungal activity against Candida albicans ATCC 24433 overexpressing ADCaMDR1-GFP assessed as inhibition of fungal growth by broth microdilution method; assay type: functional
Cell membrane [20] = assay: Disruption of membrane integrity in Candida auris CBS10913 assessed as cell shrinkage and lysis by measuring leakage of intracellular material measured after 6 hrs by SEM analysis; details: Candidozyma auris
Cell membrane [21] = assay: Disruption of membrane integrity in Candida auris CBS10913 assessed as cell surface perturbations measured after 3 hrs by SEM analysis; assay type: subcellular; details: Candidozyma auris
[Candida] auris [22] = Induction of ROS generation in Candida auris CBS10913 assessed as increase in relative fluorescence unit at sub-inhibitory concentration incubated for 1 hr by DCFDA staining-based flow cytometric analysis; assay type: functional, organism-based; details: Candidozyma auris
Candida albicans [23] = assay: Induction of ROS generation in Candida albicans ATCC 24433 assessed as increase in relative fluorescence unit at sub-inhibitory concentration incubated for 1 hr by DCFDA staining-based flow cytometric analysis; assay type: functional, organism-based
Candida albicans [24] = assay: Inhibition of drug efflux in Candida albicans ATCC 24433 overexpressing ADPDR5-GFP assessed as reduction in rhodamine 6g efflux preincubated for 45 mins followed by substrate addition and measured after 30 mins; assay type: functional; details: dose 0.1-100 µg/ml, time 75.0 min, DDE = dose-dependent effect
Candida albicans [25] = assay: Inhibition of drug efflux in Candida albicans ATCC 24433 overexpressing AD(1-8)u- assessed as […] in nile red efflux incubated for 30 mins by flow cytometry; assay type: functional
Cell membrane [26] = assay: Disruption of membrane integrity in Candida albicans ATCC 24433 assessed as cell deformation measured after 30 mins by SEM analysis; assay type: subcellular
Candida albicans [27] = assay: Inhibition of drug efflux in Candida albicans ATCC 24433 overexpressing ADCDR1-GFP assessed as reduction in rhodamine 6g efflux preincubated for 45 mins followed by substrate addition and measured after 30 mins; assay type: functional; details: dose 0.1-100 µg/ml, time 75.0 min, DDE = dose-dependent effect
Candida albicans [28] = assay: Fungicidal activity against Candida albicans ATCC 24433 assessed as reduction in fungal growth by measuring reduction in colony count at sub-MIC concentration measured after 48 hrs by time kill assay; assay type: functional, organism-based
Candida albicans [29] = assay: Inhibition of drug efflux in Candida albicans ATCC 24433 overexpressing ADCaMDR1-GF assessed as […] in nile red efflux incubated for 30 mins by flow cytometry; assay type: functional
Cell membrane [30] = assay: Disruption of membrane integrity in Candida albicans ATCC 24433 assessed as cell surface perturbations measured after 3 hrs by SEM analysis
[Candida] auris [31] = Induction of ROS generation in Candida auris CBS10913 at sub-inhibitory concentration incubated for 1 hr by DCFDA staining-based flow cytometric analysis; assay type: functional, organism-based; details: Candidozyma auris
Cell membrane [32] = assay: Disruption of membrane integrity in Candida albicans ATCC 24433 assessed as cell shrinkage and lysis by measuring leakage of intracellular material measured after 6 hrs by SEM analysis; assay type: subcellular
Candida albicans [33] = assay: Induction of ROS generation in Candida albicans ATCC 24433 at sub-inhibitory concentration incubated for 1 hr by DCFDA staining-based flow cytometric analysis; assay type: functional, organism-based
Candida [34] = assay: Downregulation of CDC15 gene expression in Candida cells; assay type: functional, cell-based
Candida [35] = assay: Downregulation of CDC4 gene expression in Candida cells; assay type: functional, cell-based
Candida [36] = assay: Downregulation of CDC42 gene expression in Candida cells; assay type: functional, cell-based
Candida [37] = assay: Downregulation of STT4 gene expression in Candida cells; assay type: functional, cell-based
Candida [38] = assay: Downregulation of GUT1 gene expression in Candida cells; assay type: functional, cell-based

Row | Structure (SMILES) | MIC80 (Candida albicans [1]) [µg/mL] | MIC80 (Candida albicans [2]) [µg/mL] | MIC80 ([Candida] auris [3]) [µg/mL] | fractional inhibitory concentration index (FICI) (Candida albicans [4]) | MIC80 (Candida albicans [5]) [µg/mL] | MIC80 (Candida albicans [6]) [µg/mL] | MIC80 (Candida albicans [7]) [µg/mL] | MIC80 (Candida albicans [8]) [µg/mL] | MIC80 (Candida tropicalis) [µg/mL] | fractional inhibitory concentration index (FICI) (Candida albicans [9]) | MIC80 (Candida albicans [10]) [µg/mL] | MIC80 (Candida parapsilosis) [µg/mL] | MIC80 ([Candida] auris [12]) [µg/mL] | MIC80 (Candida albicans [13]) [µg/mL] | MIC80 ([Candida] auris [15]) [µg/mL] | MIC80 (Candida albicans [16]) [µg/mL] | MIC80 (Candida albicans [17]) [µg/mL] | MIC80 ([Candida] auris [18]) [µg/mL] | MIC80 (Nakaseomyces glabratus) [µg/mL] | MIC80 (Candida albicans [19]) [µg/mL] | further results
1 | C[C@@H]1[C@H](O)[C@@H](C)/C=C/C=C/C=C/C=C/C=C/C=C/C=C/[C@H](O[C@@H]2O[C@H](C)[C@@H](O)[C@H](N)[C@@H]2O)C[C@@H]2O[C@](O)(C[C@@H](O)C[C@@H](O)[C@H](O)CC[C@@H](O)C[C@@H](O)CC(=O)O[C@H]1C)C[C@H](O)[C@H]2C(=O)O [AMPHOTERICIN B] | 0.5 (≈ 0.541 µM) | 0.5 (≈ 0.541 µM) | – | – | – | – | – | – | – | – | – | – | – | – | – | – | – | – | – | – | –
2 | COc1ccc(/C=C(\C)[N+](=O)[O-])cc1 | – | – | 4 (≈ 20.7 µM) | <1.5 | 2 (≈ 10.4 µM) | 4 (≈ 20.7 µM) | 8 (≈ 41.4 µM) | 4 (≈ 20.7 µM) | 4 (≈ 20.7 µM) | <0.5 | 4 (≈ 20.7 µM) | 16 (≈ 82.8 µM) | 4 (≈ 20.7 µM) | 8 (≈ 41.4 µM) | 2 (≈ 10.4 µM) | 4 (≈ 20.7 µM) | 2 (≈ 10.4 µM) | 2 (≈ 10.4 µM) | 4 (≈ 20.7 µM) | 4 (≈ 20.7 µM) | fractional inhibitory concentration index (FICI) (Candida albicans [11]): <0.5; fractional inhibitory concentration index (FICI) (Candida albicans [14]): <0.5
3 | CC/C(=C\c1ccc(OC)cc1)[N+](=O)[O-] | 8 (≈ 38.6 µM) | 2 (≈ 9.65 µM) | 4 (≈ 19.3 µM) | <2.5 | 2 (≈ 9.65 µM) | 4 (≈ 19.3 µM) | 4 (≈ 19.3 µM) | 2 (≈ 9.65 µM) | 2 (≈ 9.65 µM) | <0.5 | 4 (≈ 19.3 µM) | 8 (≈ 38.6 µM) | 4 (≈ 19.3 µM) | 4 (≈ 19.3 µM) | 2 (≈ 9.65 µM) | 4 (≈ 19.3 µM) | 2 (≈ 9.65 µM) | 2 (≈ 9.65 µM) | 4 (≈ 19.3 µM) | 2 (≈ 9.65 µM) | Activity (Cell membrane [20]): Active; Activity (Cell membrane [21]): Active; Activity ([Candida] auris [22]): Active; Activity (Candida albicans [23]): Active; inhibition (Candida albicans [24]): Dde; inhibition (Candida albicans [25]): Active; Activity (Cell membrane [26]): Active; inhibition (Candida albicans [27]): Dde; fractional inhibitory concentration index (FICI) (Candida albicans [11]): <0.5; Activity (Candida albicans [28]): Active; inhibition (Candida albicans [29]): Active; Activity (Cell membrane [30]): Active; Activity ([Candida] auris [31]): Active; fractional inhibitory concentration index (FICI) (Candida albicans [14]): <0.5; Activity (Cell membrane [32]): Active; Activity (Candida albicans [33]): Active
4 | C/C(=C\c1ccc(N(C)C)cc1)[N+](=O)[O-] | – | – | 8 (≈ 38.8 µM) | – | 16 (≈ 77.6 µM) | 16 (≈ 77.6 µM) | 32 (≈ 155 µM) | 16 (≈ 77.6 µM) | 16 (≈ 77.6 µM) | – | 16 (≈ 77.6 µM) | 32 (≈ 155 µM) | 8 (≈ 38.8 µM) | 16 (≈ 77.6 µM) | 8 (≈ 38.8 µM) | 16 (≈ 77.6 µM) | 16 (≈ 77.6 µM) | 8 (≈ 38.8 µM) | 32 (≈ 155 µM) | 8 (≈ 38.8 µM) | –
5 | OC(Cn1cncn1)(Cn1cncn1)c1ccc(F)cc1F [FLUCONAZOLE] | 1 (≈ 3.27 µM) | 1 (≈ 3.27 µM) | – | – | – | – | – | – | – | – | – | – | – | – | – | – | – | – | – | – | –
6 | CC[C@H](C)C[C@H](C)CCCCCCCCC(=O)N[C@H]1C[C@@H](O)[C@@H](NCCN)NC(=O)[C@@H]2[C@@H](O)CCN2C(=O)[C@H]([C@H](O)CCN)NC(=O)[C@H]([C@H](O)[C@@H](O)c2ccc(O)cc2)NC(=O)[C@@H]2C[C@@H](O)CN2C(=O)[C@H]([C@@H](C)O)NC1=O [CASPOFUNGIN] | 0.125 (≈ 0.114 µM) | 0.0156 (≈ 0.0143 µM) | – | – | – | – | – | – | – | – | – | – | – | – | – | – | – | – | – | – | Activity (Candida [34]): Active; Activity (Candida [35]): Active; Activity (Candida [36]): Active; Activity (Candida [37]): Active; Activity (Candida [38]): Active
